Assay results from patent publication US11691972B2, “Compounds for targeted degradation of BRD9” (C4 Therapeutics, Inc., priority 2020, dated 2023).

Tests used:
[1] = test system: Yamato-SS cells; assay: Confluence (growth) over time in Yamato-SS cells; type: cell-based, human
[2] = test system: Yamato-SS xenograft model; assay: Tumor volume in the Yamato-SS xenograft (CDX) model; type: in vivo, mouse
[3] = Plasma stability, mouse; type: in vitro ADME
[4] = Plasma stability, dog; type: in vitro ADME
[5] = Plasma stability, human; type: in vitro ADME
[6] = PPB, mouse; type: in vitro ADME; conditions: plasma
[7] = PPB, dog; type: in vitro ADME; conditions: plasma
[8] = PPB, human; type: in vitro ADME; conditions: plasma
[9] = Hepatocyte stability, mouse; type: in vitro ADME; conditions: mouse hepatocytes; read-out: Hepatocyte stability, Clint scaled ws
[10] = Hepatocyte stability, rat; type: in vitro ADME; conditions: rat hepatocytes; read-out: Hepatocyte stability, Clint scaled ws
[11] = Hepatocyte stability, dog; type: in vitro ADME; conditions: dog hepatocytes; read-out: Hepatocyte stability, Clint scaled ws
[12] = target: hERG (Homo sapiens, UniProt Q12809); assay: hERG
hERG, sequence (Q12809 whole entry): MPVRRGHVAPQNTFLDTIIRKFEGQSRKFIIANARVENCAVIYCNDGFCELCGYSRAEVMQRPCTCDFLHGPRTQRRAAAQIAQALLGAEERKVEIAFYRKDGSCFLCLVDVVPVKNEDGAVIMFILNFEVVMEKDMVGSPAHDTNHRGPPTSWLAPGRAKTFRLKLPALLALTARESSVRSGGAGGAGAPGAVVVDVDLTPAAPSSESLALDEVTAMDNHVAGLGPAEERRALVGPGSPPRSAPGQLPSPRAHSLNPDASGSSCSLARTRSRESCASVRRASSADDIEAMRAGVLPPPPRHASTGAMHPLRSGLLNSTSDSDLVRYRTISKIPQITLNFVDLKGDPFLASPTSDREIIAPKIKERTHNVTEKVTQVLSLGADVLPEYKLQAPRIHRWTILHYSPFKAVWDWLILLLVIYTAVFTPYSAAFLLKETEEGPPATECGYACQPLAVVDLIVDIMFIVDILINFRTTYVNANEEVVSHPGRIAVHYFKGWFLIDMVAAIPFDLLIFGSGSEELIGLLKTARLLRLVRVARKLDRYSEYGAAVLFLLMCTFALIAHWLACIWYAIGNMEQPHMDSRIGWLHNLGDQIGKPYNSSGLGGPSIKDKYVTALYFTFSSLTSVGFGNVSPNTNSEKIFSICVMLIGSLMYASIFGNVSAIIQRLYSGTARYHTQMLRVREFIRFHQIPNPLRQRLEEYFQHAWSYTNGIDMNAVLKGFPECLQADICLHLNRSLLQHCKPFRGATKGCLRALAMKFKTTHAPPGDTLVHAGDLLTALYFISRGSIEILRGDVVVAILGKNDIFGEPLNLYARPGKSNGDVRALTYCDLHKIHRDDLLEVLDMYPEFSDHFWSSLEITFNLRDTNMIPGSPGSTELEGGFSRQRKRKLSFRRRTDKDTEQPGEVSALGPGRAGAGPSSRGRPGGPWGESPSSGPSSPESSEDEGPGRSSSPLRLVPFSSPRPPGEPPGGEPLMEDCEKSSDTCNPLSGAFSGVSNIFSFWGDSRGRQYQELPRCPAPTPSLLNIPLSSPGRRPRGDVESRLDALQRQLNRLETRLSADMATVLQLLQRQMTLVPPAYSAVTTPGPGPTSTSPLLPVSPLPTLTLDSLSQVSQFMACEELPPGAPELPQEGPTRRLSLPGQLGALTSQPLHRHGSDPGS

[13] = IV PK, mouse; type: in vivo; conditions: for IV PK AUC(0-last) / IV PK Cmax: dose-normalised; for clearance / Vd / half-life: in vivo; for clearance: read-out: IV PK CL; for Vd: read-out: IV PK Vdss; for half-life: read-out: IV PK t1/2 (converted)
[14] = IV PK, rat; type: in vivo; conditions: for IV PK AUC(0-last) / IV PK Cmax: dose-normalised; for clearance / Vd / half-life: in vivo; for clearance: read-out: IV PK CL; for Vd: read-out: IV PK Vdss; for half-life: read-out: IV PK t1/2 (converted)
[15] = PO PK, mouse; type: in vivo; conditions: for PO PK AUC(0-last) / PO PK Cmax: dose-normalised; for bioavailability / half-life: in vivo; for bioavailability: read-out: PO PK F%; for half-life: read-out: PO PK t1/2 (converted)
[16] = PO PK, rat; type: in vivo; conditions: for PO PK AUC(0-last) / PO PK Cmax: dose-normalised; for bioavailability / half-life: in vivo; for bioavailability: read-out: PO PK F%; for half-life: read-out: PO PK t1/2 (converted)
[17] = test system: Yamato-SS; assay: Synovial sarcoma xenograft model Yamato-SS, tumor volume; type: in vivo; conditions: BALB/c nude mice
Procedure: (§1) Yamato-SS cells were maintained in vitro until exponential growth phase and inoculated subcutaneously into BALB/c nude mice at the right flank for tumor development. Treatments of Compound 172 were started at the appropriate tumor volume. Mice were treated with 40 mg/kg PO QD of Compound 172 and tumor volumes (x-axis) were measured twice a week using a caliper. The x-axis is time after start of treatment measured in days and the y-axis is tumor volume measured in mm^3.
Yamato-SS cells were maintained in vitro until exponential growth phase and inoculated subcutaneously into BALB/c nude mice at the right flank. Treatments of Compound 172 were started at the appropriate tumor volume. Mice were randomized into groups and treated with 6, 17, or 50 mg/kg PO QD of Compound 172 and tumor volumes (x-axis) were measured twice a week using a caliper. The x-axis is time after start of treatment measured in days and the y-axis is tumor volume measured in mm^3.
as §1, with “176” for “172”, “treated as indicated” for “treated”, “with” for “with 40 mg/kg PO QD of”

[18] = target: T1, BRD9 (Homo sapiens, UniProt Q9H8M2); assay: Western blot, in-vivo BRD9 degradation in Yamato-SS tumors; parameters: inoculated subcutaneously into BALB/c nude mice at the right flank for tumor development; from tissue; host or cells: Yamato-SS xenograft tumours in BALB/c nude mice; species or system BALB/c nude mice
T1 sequence (Q9H8M2 1-597): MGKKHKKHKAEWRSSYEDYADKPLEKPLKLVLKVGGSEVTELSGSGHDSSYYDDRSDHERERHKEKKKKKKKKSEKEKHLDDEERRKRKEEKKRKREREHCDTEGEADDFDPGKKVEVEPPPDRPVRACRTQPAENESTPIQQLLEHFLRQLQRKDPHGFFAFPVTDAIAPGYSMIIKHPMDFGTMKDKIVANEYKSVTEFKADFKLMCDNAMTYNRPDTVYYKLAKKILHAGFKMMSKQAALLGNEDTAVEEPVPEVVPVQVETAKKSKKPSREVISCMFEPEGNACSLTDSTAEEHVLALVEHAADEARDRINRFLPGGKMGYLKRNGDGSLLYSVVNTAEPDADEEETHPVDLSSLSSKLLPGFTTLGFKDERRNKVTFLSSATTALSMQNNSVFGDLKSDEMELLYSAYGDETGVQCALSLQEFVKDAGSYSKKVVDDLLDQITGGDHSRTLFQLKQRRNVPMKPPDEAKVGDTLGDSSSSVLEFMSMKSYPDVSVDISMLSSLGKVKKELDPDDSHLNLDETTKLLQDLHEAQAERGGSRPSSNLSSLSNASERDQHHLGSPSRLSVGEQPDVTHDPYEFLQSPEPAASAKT
Procedure: (§2) Yamato-SS cells were maintained in vitro until exponential growth phase and inoculated subcutaneously into BALB/c nude mice at the right flank for tumor development. Mice were treated with single dose of Compound 172 at 10 or 75 mg/kg PO. Tumor were collected at indicated time points and snap frozen until lysis. Tumors were ground and lysed in RIPA Buffer containing 2× protease/phosphatase inhibitor using a freeze grinder at 50 Hz for 5 minutes. Protein concentrations were determined by Pierce™ BCA Protein Assay Kit. Samples were diluted to appropriate concentrations and run in a western blot.
as §2, with “Yamato-SS” for “Yamato-SS cells”, “flank.” for “flank for tumor development.”, “176” for “172”, “3, 12” for “10”, “50” for “75”
FIG. 20 is a histogram reflecting quantitated bands from FIG. 19. The x axis is time measured in hours and the y axis is BRD9 remaining normalized to vehicle and vinculin measured in percentage.

SMILES | Stability (plasma) % remaining @3 hrs [3] | Stability (plasma) % remaining @3 hrs [4] | Stability (plasma) % remaining @3 hrs [5] | fraction unbound [6] | fraction unbound [7] | fraction unbound [8] | CLint scaled [9] | CLint scaled [10] | CLint scaled [11] | IC50 [12] | IV PK AUC(0-last) [13] | IV PK Cmax [13] | clearance [13] | Vd [13] | half-life [13] | IV PK AUC(0-last) [14] | IV PK Cmax [14] | clearance [14] | Vd [14] | half-life [14] | other results
COc1cc(-c2cn(C)c(=O)c(C)c2C)cc(OC)c1CN1CCC(N2CCN(c3ccc(NC4CCC(=O)NC4=O)cc3F)CC2)C(F)(F)C1 (single isomer, unassigned) [Compound 176, 3-[4-[4-[1-[[2,6-dimethoxy-4-(1,4,5-trimethyl-6-oxo-3-pyridyl)phenyl]methyl]-3,3-difluoro-4-piperidyl]piperazin-1-yl]-3-fluoro-anilino]piperidine-2,6-dione] | 85% | 100% | 67% | 0.034 | 0.065 | 0.067 | 30 mL/min/kg | 14.2 mL/min/kg | 8.6 mL/min/kg | > 30 µM | 2724 (h*ng/mL)/(mg/kg) | 720 [ng/mL]/(mg/kg) | 6.2 mL/min/kg | 2 L/kg | 3.7 h | 771 (h*ng/mL)/(mg/kg) | 439 [ng/mL]/(mg/kg) | 21.6 mL/min/kg | 6.7 L/kg | 4 h | confluence as a percentage of control, single dose long term growth evaluation ([1]; BAF perturbed Yamato-SS model, various concentrations, FIG. 16): selective growth inhibition; mean tumor volume+SEM ([2]; synovial sarcoma CDX model (Yamato SS), various concentrations, FIG. 21): efficacy; PO PK AUC(0-last) [15]: 1999 (h*ng/mL)/(mg/kg); PO PK Cmax [15]: 346 (ng/mL)/(mg/kg); bioavailability [15]: 74%; half-life [15]: 3.5 h; PO PK AUC(0-last) [16]: 656 (h*ng/mL)/(mg/kg); PO PK Cmax [16]: 75 (ng/mL)/(mg/kg); bioavailability [16]: 83%; half-life [16]: 5.1 h; tumor volume after treatment, Yamato-SS xenograft ([17]; treated as indicated, FIG. 21): strong effect; in-vivo BRD9 degradation, western blot ([18]; single dose 3, 12 or 50 mg/kg PO, 1, 4, 12, 24, 48 hr, FIG. 19): time dependent in-vivo BRD9 degradation
COc1cc(-c2cn(C)c(=O)c(C)c2C)cc(OC)c1CN1CCC(N2CCN(c3ccc(NC4CCC(=O)NC4=O)cc3F)CC2)C(F)(F)C1 (centres unmarked) [Compound 172, 3-[4-[4-[1-[[2,6-dimethoxy-4-(1,4,5-trimethyl-6-oxo-3-pyridyl)phenyl]methyl]-3,3-difluoro-4-piperidyl]piperazin-1-yl]-3-fluoro-anilino]piperidine-2,6-dione] | 90.3% | 80.2% | 83.4% | 0.018 | 0.039 | 0.088 | 38 mL/min/kg | 15 mL/min/kg | 2 mL/min/kg | > 30 µM | 4942 (h*ng/mL)/(mg/kg) | 1228 [ng/mL]/(mg/kg) | 3.4 mL/min/kg | 1.1 L/kg | 3.6 h | 1230 (h*ng/mL)/(mg/kg) | 517 [ng/mL]/(mg/kg) | 16 mL/min/kg | 7.9 L/kg | 9.5 h | confluence as a percentage of control over time ([1]; Yamato-SS cells, FIG. 4): growth inhibition; response of tumor volume to various concentrations ([2]; Yamato-SS xenograft model, FIG. 7): dose dependent efficacy; PO PK AUC(0-last) [15]: 5947 (h*ng/mL)/(mg/kg); PO PK Cmax [15]: 844 (ng/mL)/(mg/kg); bioavailability [15]: 122%; half-life [15]: 3.3 h; PO PK AUC(0-last) [16]: 520 (h*ng/mL)/(mg/kg); PO PK Cmax [16]: 92 (ng/mL)/(mg/kg); bioavailability [16]: 49%; half-life [16]: 4.3 h; tumor volume after treatment, Yamato-SS xenograft ([17]; 40 mg/kg PO QD, FIG. 1): strong effect; tumor volume after treatment, Yamato-SS xenograft, dose response ([17]; 6, 17, or 50 mg/kg PO QD, FIG. 7): dose dependent efficacy; in-vivo BRD9 degradation, western blot ([18]; single dose 10 or 75 mg/kg PO, FIG. 12, not BRD7): dose dependent in-vivo BRD9 degradation
